Legend:
[1] = biological target: T1, Alpha-2A adrenergic receptor (Homo sapiens, UniProt P08913); format: functional, cell-based
T1 sequence (P08913 whole entry): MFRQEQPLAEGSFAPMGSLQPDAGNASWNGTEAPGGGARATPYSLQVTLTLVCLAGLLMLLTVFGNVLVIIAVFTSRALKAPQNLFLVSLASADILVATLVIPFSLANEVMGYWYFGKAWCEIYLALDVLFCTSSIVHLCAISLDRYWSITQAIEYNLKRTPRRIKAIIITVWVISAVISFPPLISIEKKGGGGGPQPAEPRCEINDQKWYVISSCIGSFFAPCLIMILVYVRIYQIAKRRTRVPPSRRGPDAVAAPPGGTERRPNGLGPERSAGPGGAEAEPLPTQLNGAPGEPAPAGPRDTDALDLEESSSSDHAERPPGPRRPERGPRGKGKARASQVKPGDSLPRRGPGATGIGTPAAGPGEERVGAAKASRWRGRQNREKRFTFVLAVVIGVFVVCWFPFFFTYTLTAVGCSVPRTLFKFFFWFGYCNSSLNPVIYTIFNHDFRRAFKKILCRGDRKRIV

[2] = biological target: Voltage-gated inwardly rectifying potassium channel KCNH2 (Homo sapiens, UniProt Q12809); format: functional; conditions: read-out: AC50
[3] = biological target: T1, Alpha-2A adrenergic receptor; format: functional, cell-based; remark: listed apart in the source
[4] = biological target: T2, 5-hydroxytryptamine receptor 2C (Homo sapiens, UniProt P28335)
T2 sequence (P28335 whole entry): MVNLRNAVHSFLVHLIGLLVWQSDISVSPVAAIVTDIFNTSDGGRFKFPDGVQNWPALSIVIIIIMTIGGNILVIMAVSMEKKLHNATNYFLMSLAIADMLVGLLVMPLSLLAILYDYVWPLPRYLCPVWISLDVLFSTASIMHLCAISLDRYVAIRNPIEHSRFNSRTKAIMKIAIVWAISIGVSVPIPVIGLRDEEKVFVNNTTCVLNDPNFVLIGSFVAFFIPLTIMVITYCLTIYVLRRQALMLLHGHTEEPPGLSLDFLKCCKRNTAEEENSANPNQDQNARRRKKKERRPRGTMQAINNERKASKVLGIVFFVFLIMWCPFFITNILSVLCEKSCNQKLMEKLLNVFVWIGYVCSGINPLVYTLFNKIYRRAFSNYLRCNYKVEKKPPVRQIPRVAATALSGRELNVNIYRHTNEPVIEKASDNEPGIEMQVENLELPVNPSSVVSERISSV

[5] = biological target: Growth hormone secretagogue receptor type 1 (Homo sapiens, UniProt Q92847)
[6] = biological target: D(1A) dopamine receptor (Homo sapiens, UniProt P21728); format: functional, cell-based
[7] = biological target: T3, Adenosine receptor A3 (Homo sapiens, UniProt P0DMS8)
T3 sequence (P0DMS8 whole entry): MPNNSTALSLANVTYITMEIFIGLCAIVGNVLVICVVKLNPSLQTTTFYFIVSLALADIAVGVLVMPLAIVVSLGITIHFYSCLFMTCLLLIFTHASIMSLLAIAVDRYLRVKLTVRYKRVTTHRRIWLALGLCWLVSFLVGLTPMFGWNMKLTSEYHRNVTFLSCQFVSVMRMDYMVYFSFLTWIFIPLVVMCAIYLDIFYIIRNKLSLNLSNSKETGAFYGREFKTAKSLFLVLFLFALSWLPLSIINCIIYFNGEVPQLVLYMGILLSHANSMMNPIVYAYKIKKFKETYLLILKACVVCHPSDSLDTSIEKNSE

[8] = biological target: 3',5'-cyclic-AMP phosphodiesterase 4D (Homo sapiens, UniProt Q08499); format: functional
[9] = biological target: T4, Cholecystokinin receptor type A (Homo sapiens, UniProt P32238)
T4 sequence (P32238 whole entry): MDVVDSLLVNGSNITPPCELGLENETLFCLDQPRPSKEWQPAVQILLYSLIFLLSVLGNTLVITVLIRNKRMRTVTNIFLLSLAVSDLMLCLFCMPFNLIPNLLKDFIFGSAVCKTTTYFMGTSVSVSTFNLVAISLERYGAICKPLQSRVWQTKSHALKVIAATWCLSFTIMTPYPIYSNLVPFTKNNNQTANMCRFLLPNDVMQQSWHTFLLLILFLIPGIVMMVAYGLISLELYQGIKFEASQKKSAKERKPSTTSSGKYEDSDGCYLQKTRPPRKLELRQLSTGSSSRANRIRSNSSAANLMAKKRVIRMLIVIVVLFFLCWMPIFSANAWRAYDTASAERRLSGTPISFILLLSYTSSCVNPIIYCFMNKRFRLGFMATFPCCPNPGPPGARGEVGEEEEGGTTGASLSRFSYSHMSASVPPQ

[10] = biological target: Delta-type opioid receptor (Homo sapiens, UniProt P41143)
[11] = biological target: Melanocortin receptor 3 (Homo sapiens, UniProt P41968)
[12] = biological target: cGMP-inhibited 3',5'-cyclic phosphodiesterase 3A (Homo sapiens, UniProt Q14432); format: functional
[13] = biological target: T5, 5-hydroxytryptamine receptor 3A (Homo sapiens, UniProt P46098); format: functional
T5 sequence (P46098 whole entry): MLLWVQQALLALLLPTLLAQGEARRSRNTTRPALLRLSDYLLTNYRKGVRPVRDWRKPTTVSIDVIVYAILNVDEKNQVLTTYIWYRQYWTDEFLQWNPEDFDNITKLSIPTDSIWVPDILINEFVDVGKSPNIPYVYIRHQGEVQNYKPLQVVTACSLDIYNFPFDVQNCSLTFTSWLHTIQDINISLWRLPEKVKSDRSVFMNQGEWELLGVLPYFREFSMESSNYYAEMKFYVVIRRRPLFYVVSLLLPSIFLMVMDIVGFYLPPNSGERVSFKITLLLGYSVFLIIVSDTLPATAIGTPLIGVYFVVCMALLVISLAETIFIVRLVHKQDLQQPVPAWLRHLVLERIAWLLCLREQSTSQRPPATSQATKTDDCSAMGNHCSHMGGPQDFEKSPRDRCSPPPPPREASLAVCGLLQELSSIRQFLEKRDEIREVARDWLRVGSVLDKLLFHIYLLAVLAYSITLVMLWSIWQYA

[14] = biological target: Motilin receptor (Homo sapiens, UniProt O43193)
[15] = biological target: 5-hydroxytryptamine receptor 2B (Homo sapiens, UniProt P41595); format: functional, cell-based
Note: assay procedure not described here.

Sequence of 5-hydroxytryptamine receptor 2B (P41595 whole entry): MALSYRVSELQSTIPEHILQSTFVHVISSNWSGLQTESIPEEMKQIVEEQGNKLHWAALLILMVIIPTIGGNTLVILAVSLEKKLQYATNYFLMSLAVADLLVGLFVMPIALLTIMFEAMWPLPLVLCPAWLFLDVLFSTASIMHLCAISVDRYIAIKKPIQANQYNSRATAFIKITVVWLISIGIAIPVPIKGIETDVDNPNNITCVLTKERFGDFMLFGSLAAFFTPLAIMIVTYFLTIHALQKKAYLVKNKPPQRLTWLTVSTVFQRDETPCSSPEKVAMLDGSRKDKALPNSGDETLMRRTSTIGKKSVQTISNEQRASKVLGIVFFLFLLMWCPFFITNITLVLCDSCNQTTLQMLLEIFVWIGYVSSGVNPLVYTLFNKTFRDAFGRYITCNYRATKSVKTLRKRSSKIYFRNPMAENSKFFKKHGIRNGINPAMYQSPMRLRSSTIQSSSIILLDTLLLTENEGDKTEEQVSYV
Sequence of Growth hormone secretagogue receptor type 1 (Q92847 whole entry): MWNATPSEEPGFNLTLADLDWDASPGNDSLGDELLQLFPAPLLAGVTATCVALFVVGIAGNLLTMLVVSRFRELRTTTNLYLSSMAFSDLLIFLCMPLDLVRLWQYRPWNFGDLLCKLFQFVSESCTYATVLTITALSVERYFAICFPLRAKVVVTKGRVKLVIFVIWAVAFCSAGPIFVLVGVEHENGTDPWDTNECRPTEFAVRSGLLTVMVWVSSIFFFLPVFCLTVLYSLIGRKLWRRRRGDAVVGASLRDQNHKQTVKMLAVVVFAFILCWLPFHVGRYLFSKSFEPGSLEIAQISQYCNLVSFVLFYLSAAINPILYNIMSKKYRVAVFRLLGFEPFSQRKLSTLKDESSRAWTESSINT
Sequence of Melanocortin receptor 3 (P41968 whole entry): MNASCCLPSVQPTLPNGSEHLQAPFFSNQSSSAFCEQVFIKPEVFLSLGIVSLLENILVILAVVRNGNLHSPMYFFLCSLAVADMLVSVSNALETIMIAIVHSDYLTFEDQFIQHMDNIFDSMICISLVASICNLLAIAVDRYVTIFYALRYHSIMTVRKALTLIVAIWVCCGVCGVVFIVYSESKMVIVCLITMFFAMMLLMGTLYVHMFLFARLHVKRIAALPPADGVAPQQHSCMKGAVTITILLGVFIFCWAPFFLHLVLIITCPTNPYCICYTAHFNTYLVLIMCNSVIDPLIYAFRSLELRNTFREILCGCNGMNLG
Sequence of D(1A) dopamine receptor (P21728 whole entry): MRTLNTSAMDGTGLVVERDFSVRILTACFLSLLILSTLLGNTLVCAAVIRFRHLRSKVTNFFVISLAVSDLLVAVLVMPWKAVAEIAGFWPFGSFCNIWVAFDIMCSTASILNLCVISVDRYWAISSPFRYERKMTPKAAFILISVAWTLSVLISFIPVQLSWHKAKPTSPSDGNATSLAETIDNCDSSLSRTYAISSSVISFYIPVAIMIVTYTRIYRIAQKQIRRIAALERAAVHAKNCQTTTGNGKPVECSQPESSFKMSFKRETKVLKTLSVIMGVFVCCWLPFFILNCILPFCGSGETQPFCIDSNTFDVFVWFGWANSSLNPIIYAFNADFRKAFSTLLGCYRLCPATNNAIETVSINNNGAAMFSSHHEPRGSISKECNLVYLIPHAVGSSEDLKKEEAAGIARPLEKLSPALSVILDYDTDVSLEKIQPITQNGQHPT
Sequence of cGMP-inhibited 3',5'-cyclic phosphodiesterase 3A (Q14432 whole entry): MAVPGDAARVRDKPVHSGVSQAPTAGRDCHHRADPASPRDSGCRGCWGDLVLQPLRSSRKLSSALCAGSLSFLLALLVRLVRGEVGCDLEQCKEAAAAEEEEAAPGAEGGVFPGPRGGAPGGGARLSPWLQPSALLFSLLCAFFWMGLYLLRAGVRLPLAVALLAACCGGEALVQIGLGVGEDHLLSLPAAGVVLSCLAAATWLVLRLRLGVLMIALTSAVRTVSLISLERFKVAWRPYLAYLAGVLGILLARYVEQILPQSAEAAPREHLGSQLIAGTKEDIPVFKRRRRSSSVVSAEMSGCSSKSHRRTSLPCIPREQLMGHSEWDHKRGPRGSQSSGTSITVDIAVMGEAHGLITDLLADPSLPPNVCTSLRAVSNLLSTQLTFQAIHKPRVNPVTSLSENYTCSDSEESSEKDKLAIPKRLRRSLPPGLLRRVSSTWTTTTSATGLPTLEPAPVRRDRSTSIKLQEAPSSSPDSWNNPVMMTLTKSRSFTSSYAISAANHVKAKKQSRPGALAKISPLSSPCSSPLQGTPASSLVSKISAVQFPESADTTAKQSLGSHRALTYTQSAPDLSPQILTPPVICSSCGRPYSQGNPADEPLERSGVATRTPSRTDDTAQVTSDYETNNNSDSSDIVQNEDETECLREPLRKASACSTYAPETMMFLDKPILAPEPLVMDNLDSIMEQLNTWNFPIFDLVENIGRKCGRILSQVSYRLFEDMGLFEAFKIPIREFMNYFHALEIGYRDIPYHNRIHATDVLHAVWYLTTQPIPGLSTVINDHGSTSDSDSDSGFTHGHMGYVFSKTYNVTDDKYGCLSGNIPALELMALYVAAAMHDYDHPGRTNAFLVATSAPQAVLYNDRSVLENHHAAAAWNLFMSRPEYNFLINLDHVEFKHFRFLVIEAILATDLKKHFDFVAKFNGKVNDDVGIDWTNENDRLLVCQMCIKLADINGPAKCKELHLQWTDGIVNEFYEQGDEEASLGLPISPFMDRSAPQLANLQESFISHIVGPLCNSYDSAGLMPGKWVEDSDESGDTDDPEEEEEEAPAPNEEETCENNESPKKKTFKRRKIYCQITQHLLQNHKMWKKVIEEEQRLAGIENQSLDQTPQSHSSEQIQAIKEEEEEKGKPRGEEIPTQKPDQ
Sequence of Motilin receptor (O43193 whole entry): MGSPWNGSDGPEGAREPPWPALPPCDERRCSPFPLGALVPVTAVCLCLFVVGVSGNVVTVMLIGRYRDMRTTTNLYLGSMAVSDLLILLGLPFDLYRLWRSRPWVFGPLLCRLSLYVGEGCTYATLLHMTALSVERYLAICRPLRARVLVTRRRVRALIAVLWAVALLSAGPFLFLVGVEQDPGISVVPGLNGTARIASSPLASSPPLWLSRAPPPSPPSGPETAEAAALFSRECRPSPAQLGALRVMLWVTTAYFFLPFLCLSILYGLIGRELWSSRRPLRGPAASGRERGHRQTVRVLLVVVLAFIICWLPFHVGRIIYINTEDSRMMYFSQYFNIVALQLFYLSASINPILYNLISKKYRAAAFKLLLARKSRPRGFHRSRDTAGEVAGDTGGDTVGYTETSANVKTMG
Sequence of Voltage-gated inwardly rectifying potassium channel KCNH2 (Q12809 whole entry): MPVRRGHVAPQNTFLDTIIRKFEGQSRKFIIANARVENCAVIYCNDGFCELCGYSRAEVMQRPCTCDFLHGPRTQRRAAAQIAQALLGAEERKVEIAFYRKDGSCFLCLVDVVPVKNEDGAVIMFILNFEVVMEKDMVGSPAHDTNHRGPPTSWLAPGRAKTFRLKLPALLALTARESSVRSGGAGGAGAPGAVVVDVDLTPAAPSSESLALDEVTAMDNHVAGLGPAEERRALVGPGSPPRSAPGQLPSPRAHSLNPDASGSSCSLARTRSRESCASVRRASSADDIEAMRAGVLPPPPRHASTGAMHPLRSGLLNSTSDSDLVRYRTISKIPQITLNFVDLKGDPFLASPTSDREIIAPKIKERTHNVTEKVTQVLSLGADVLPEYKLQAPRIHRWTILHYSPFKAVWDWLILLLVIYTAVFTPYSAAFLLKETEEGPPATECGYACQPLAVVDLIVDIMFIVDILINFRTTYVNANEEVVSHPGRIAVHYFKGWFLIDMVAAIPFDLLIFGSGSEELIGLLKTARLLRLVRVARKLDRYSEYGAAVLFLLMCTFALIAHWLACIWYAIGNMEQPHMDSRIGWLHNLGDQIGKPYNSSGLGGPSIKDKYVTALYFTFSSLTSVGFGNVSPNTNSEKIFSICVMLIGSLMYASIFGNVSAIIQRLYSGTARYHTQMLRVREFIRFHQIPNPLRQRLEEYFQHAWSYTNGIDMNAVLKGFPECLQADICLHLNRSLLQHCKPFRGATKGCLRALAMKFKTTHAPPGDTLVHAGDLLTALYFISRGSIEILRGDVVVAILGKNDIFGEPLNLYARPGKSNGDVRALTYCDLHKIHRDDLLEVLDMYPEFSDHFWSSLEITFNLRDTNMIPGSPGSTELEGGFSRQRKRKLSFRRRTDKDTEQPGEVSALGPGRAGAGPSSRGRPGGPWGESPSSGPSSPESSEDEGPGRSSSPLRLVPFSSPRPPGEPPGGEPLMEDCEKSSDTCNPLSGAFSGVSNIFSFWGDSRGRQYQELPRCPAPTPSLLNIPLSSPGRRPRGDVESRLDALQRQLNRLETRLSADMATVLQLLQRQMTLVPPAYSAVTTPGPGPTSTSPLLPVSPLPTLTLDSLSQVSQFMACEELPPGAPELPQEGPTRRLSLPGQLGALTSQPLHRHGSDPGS
Sequence of Delta-type opioid receptor (P41143 whole entry): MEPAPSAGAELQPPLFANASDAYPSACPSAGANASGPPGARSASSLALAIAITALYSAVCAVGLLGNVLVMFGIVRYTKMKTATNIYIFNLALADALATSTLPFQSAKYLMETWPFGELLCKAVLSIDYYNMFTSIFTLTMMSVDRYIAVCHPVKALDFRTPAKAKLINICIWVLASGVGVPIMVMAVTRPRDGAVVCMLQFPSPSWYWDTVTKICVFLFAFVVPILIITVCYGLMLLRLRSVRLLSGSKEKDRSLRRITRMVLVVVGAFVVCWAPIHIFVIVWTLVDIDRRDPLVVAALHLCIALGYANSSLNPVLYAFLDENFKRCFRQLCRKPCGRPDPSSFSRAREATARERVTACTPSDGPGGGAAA

| SMILES | AC50 [1] [µM] | AC50 [2] [µM] | AC50 [3] [µM] | AC50 [4] [µM] | AC50 [5] [µM] | AC50 [6] [µM] | AC50 [7] [µM] | AC50 [8] [µM] | AC50 [9] [µM] | AC50 [10] [µM] | AC50 [11] [µM] | AC50 [12] [µM] | AC50 [13] [µM] | AC50 [14] [µM] | AC50 [15] [µM] |
| --- | --- | --- | --- | --- | --- | --- | --- | --- | --- | --- | --- | --- | --- | --- | --- |
| CCOCC(O)COc1ccc(NC(=O)CC[S+](C)C)cc1 (stereo unspecified) | > 30 | > 30 | > 30 | > 30 | > 30 | > 30 | > 30 | > 30 | > 30 | > 30 | > 30 | > 30 | > 30 | > 30 | > 30 |
| CCOC(=O)[C@H](CCc1ccccc1)N[C@@H](C)C(=O)N1Cc2ccccc2C[C@H]1C(=O)O | > 10 | > 30 | > 10 | > 10 | > 30 | > 10 | > 30 | > 10 | > 30 | > 10 | > 30 | > 10 | > 10 | > 10 | > 10 |
| CCC[C@@]1(CCc2ccccc2)CC(O)=C([C@H](CC)c2cccc(NS(=O)(=O)c3ccc(C(F)(F)F)cn3)c2)C(=O)O1 | 8.6 | – | > 30 | > 30 | > 30 | > 30 | 6.4 | 29 | 27 | 16 | > 30 | > 30 | > 30 | 27 | > 30 |
| C=CC1=C(C(=O)O)N2C(=O)[C@@H](NC(=O)/C(=N\O)c3csc(N)n3)[C@H]2SC1 | > 10 | > 30 | > 10 | > 30 | > 30 | > 10 | > 30 | > 30 | > 30 | > 30 | > 30 | > 30 | > 30 | > 10 | > 10 |
| O=C(O)COC(=O)Cc1ccccc1Nc1c(Cl)cccc1Cl [ACECLOFENAC] | > 10 | > 30 | > 10 | > 30 | > 30 | > 10 | > 30 | > 30 | > 30 | > 30 | > 30 | > 30 | > 30 | > 10 | > 10 |
| CN1CC2c3ccccc3Oc3ccc(Cl)cc3C2C1 (stereo unspecified) [ASENAPINE] | 0.079 | – | > 30 | 0.0006 | 24 | > 30 | > 30 | > 30 | > 30 | > 30 | > 30 | > 30 | 18 | > 30 | > 30 |
| Cn1cnc2c(F)c(Nc3ccc(Br)cc3F)c(C(=O)NOCCO)cc21 [BINIMETINIB] | > 30 | – | > 30 | > 30 | > 30 | > 30 | > 30 | > 30 | > 30 | > 30 | > 30 | > 30 | > 30 | > 30 | > 30 |
| C[C@H](CS)C(=O)N1CCC[C@H]1C(=O)O [CAPTOPRIL] | > 10 | – | > 10 | > 30 | > 30 | > 30 | > 30 | > 30 | > 30 | > 30 | > 30 | > 30 | > 30 | > 10 | > 10 |
| C[C@H](Nc1ncnc2[nH]cnc12)c1cc2cccc(Cl)c2c(=O)n1-c1ccccc1 [DUVELISIB] | > 30 | – | > 30 | > 30 | > 30 | > 30 | > 30 | > 30 | > 30 | > 30 | > 30 | > 30 | > 30 | > 30 | > 30 |
| OCCOCCN1CCN(C(c2ccccc2)c2ccc(Cl)cc2)CC1 (stereo unspecified) [HYDROXYZINE] | > 10 | – | > 10 | > 30 | > 30 | > 10 | > 30 | > 30 | > 30 | > 30 | > 30 | > 30 | > 30 | > 10 | > 10 |
| Nc1nnc(-c2cccc(Cl)c2Cl)c(N)n1 [LAMOTRIGINE] | > 10 | – | > 10 | > 30 | > 30 | > 30 | > 30 | > 30 | > 30 | > 30 | > 30 | 2.1 | > 30 | > 10 | > 10 |
| CS(=O)(=O)Nc1ccc([N+](=O)[O-])cc1Oc1ccccc1 [NIMESULIDE] | > 30 | > 30 | > 30 | 26 | 30 | > 30 | – | > 30 | 6.2 | > 30 | > 30 | > 30 | > 30 | 27 | > 30 |
| CO[C@@H]1[C@@H](OC(N)=O)[C@@H](O)[C@H](Oc2ccc3c(O)c(NC(=O)c4ccc(O)c(CC=C(C)C)c4)c(=O)oc3c2C)OC1(C)C [NOVOBIOCIN] | > 30 | – | > 30 | > 30 | > 30 | > 30 | > 30 | > 30 | > 30 | > 30 | > 30 | > 30 | > 30 | > 30 | > 30 |
